# Patent US20180071317A1, “USE OF AGENTS THAT ALTER THE PERITUMORAL ENVIRONMENT FOR THE TREATMENT OF CANCER” (SERVICIO ANDALUZ DE SALUD, priority 2011, published 2018)
# Key:
# [1] = test system: fibroblasts (PHF) co-cultured with tumor cells of human gastric adenocarcinoma (23132/87); assay: Marker expression (IHC) in PHF co-cultured with 23132/87 tumor cells; assay type: cell-based; settings: co-culture with 23132/87; SP 1 μM + antagonist 1 μM; 48 h;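 further: cultures grown in fresh plasma from a healthy human donor, values give the percentage of PHF fibroblasts positive for the marker, each experiment run in six replicates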
# Procedure: All cultures were maintained 48 hours, following which the same cells were included in paraffin blocks for subsequent analysis of the expression of different markers by immunohistochemistry (see Example 1). The primary antibodies used to perform immunohistochemical assays and their concentration are detailed in Example 2. All experiments were carried out sixfold. Analyzed markers in fibroblast cells (stromal cells) were: TGF-α, TGF-β1, TGF-β2, TGF-β3, SPARC, MMP-3, MMP-7, MMP-9, MMP-11, MMP-13 and MMP-14.
# [2] = test system: co-cultures of tumor cells-endothelial cells (C-12210); assay: Inhibition/survival in co-cultures of primary human tumor cells and endothelial cells; assay type: cell-based; settings: survival in reference to control, SP 1 μM, Aprepitant 1 μM
# Procedure: To check that the interaction of primary tumor cells extracted directly from human with human vascular endothelial cells, promotes the survival of both cell types, co-cultures were performed microvascular endothelial cells from juvenile foreskins (PromoCell GmbH, Sickingenstraβe 63/65, D-69126 Heidelberg, Germany; reference C-12210) with tumor cells obtained directly from primary human tumors.
# A total of 6 wells containing tumor cells were used as control for survival. Another 6 wells containing tumor cells were cultured with addition of endothelial cells.
# Subsequently, cells were embedded in paraffin for analysis by immunohistochemistry. In order to identify the different cell types and quantity of them [They were labelled with primary antibodies specific for human endothelial cells (anti-CD31), carcinoma cells (Anti-Cytokeratins Spread Spectrum), glioma (Anti-glial fibrillary acidic protein), fibrosarcoma and malignant fibrous histiocytoma (Anti-Smooth Muscle Actin), Ewing sarcoma (Anti-CD99), Melanoma (Anti-HMB45), leukemias and lymphomas (Anti-Common Antigen Leucitario) and myeloma (anti CD 138). All antibodies are distributed by Dako and were used at the same concentration which is supplied (supplied pre-diluted—“ready to use”).
# [3] = test system: fibroblasts (PHF) co-cultured with tumor cells in human prostate carcinoma (22Rv1); assay: Marker expression (IHC) in PHF co-cultured with 22Rv1 tumor cells; assay type: cell-based; settings: co-culture with 22Rv1; SP 1 μM + antagonist 1 μM; 48 h;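 further: cultures grown on fresh plasma from a healthy donor, each experiment run sixfold, values give the percentage of fibroblasts positive for the given marker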
# Procedure: (§1) All cultures were maintained 48 hours, following which the same cells were included in paraffin blocks for subsequent analysis of the expression of different markers by immunohistochemistry (see Example 1). […] All experiments were carried out sixfold. Analyzed markers in fibroblast cells (stromal cells) were: TGF-α, TGF-β1, TGF-β2, TGF-β3, SPARC, MMP-3, MMP-7, MMP-9, MMP-11, MMP-13 and MMP-14.
# [4] = test system: fibroblasts of tumors produced by human glioma tumor line (GAMG); assay: Marker expression (IHC) in fibroblasts of tumor or peritumoral area, mouse model, GAMG; assay type: in vivo; settings: GAMG tumors in mice, 30 mg/kg/day oral, 7 days
# Procedure: In vitro tests conducted in Example 5 are now carried out in an experimental model in mice in vivo. […] Subsequently, the expression in fibroblasts tumoral and peritumoral area of molecular markers associated with progression and maintenance of tumors: TGF-α, TGF-β1, TGF-β2, TGF-β3, MMP-7, MMP-11, MMP-14 were analyzed by immunohistochemistry.
# Were injected with 2×10^7 cells tumors (corresponding, in each case to each of the tumor types as specified in Table 9) in 200 of PBS subcutaneously μl. […] Mice were randomized into two groups when the tumors reached a volume of 75 mm^3 One group was treated with non-peptide receptor antagonists NK1 and the other with placebo 200μ1. […] Tumors and samples of non-neoplastic stromal areas remote from the tumor were halved, formalin fixed (4%) and then were included in paraffin blocks for analysis by immunohistochemistry.
# The expression on fibroblast cells obtained in the animal model was analyzed by immunohistochemistry, of the above markers: TGF-α, TGF-β1, TGF-β2, TGF-β3, MMP-7, MMP-1 1, MMP-14MP-14. Tables 32 to 35 depict the type of label used and the average percentage of fibroblasts present in non-tumor areas, tumor and peritumoral (±SD) which were expressing the marker shown in each of the tumor types developed from of the different cell lines used. This process was realized in mice treated with non-peptide antagonists of NK1 receptor and in untreated animals (control).
# [5] = test system: fibroblasts (PHF) co-cultured with human choriocarcinoma tumor cells (AC-1M32); assay: Marker expression (IHC) in PHF co-cultured with AC-1M32 tumor cells; assay type: cell-based; settings: co-culture with AC-1M32; SP 1 μM + antagonist 1 μM; 48 h;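 further: Read-out is the percentage of PHF fibroblasts positive for each marker, with cells grown in fresh healthy-donor blood plasma, six replicates, reference being fibroblasts cultured alone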
# Procedure: as §1
# [6] = Carcinoma of lung, (Small cell carcinoma in Table 36)
# [7] = Carcinoma of lung, Non Small Cell Carcinoma in Table 36
# [8] = Carcinoma of thyroid, (Follicular Carcinoma in Table 36)
# [9] = Carcinoma of thyroid, (Papillary Carcinoma in Table 36)
smiles,measurement,setting,value
C[C@@H](O[C@H]1OCCN(Cc2n[nH]c(=O)[nH]2)[C@H]1c1ccc(F)cc1)c1cc(C(F)(F)F)cc(C(F)(F)F)c1 [Aprepitant],PHF cells expressing MMP-3,[1],0%
same,PHF cells expressing MMP-7,[1],0%
same,PHF cells expressing MMP-9,[1],0%
same,PHF cells expressing MMP-11,[1],0%
same,PHF cells expressing MMP-13,[1],0%
same,PHF cells expressing MMP-14,[1],0%
same,PHF cells expressing SPARC,[1],0%
same,PHF cells expressing TGF-α,[1],0%
same,PHF cells expressing TGF-β1,[1],0%
same,PHF cells expressing TGF-β2,[1],0%
same,PHF cells expressing TGF-β3,[1],0%
same,Endothelial cells co-cultured with tumor cells + SP + Aprepitant,[2]; Carcinoma of Colon,57 ± 3%
same,Tumor cells co-cultured with endothelial cells + SP + Aprepitant,[2]; Carcinoma of Colon,61 ± 3%
same,Endothelial cells co-cultured with tumor cells + SP + Aprepitant,[2]; Carcinoma of Pancreas,52 ± 4%
same,Tumor cells co-cultured with endothelial cells + SP + Aprepitant,[2]; Carcinoma of Pancreas,46 ± 6%
same,Endothelial cells co-cultured with tumor cells + SP + Aprepitant,[2]; Carcinoma of breast,56 ± 6%
same,Tumor cells co-cultured with endothelial cells + SP + Aprepitant,[2]; Carcinoma of breast,56 ± 3%
same,Endothelial cells co-cultured with tumor cells + SP + Aprepitant,[2]; Carcinoma of cervix,45 ± 3%
same,Tumor cells co-cultured with endothelial cells + SP + Aprepitant,[2]; Carcinoma of cervix,46 ± 3%
same,Endothelial cells co-cultured with tumor cells + SP + Aprepitant,[2]; Carcinoma of endometrial,57 ± 4%
same,Tumor cells co-cultured with endothelial cells + SP + Aprepitant,[2]; Carcinoma of endometrial,49 ± 3%
same,Endothelial cells co-cultured with tumor cells + SP + Aprepitant,[2]; [6],46 ± 7%
same,Tumor cells co-cultured with endothelial cells + SP + Aprepitant,[2]; [6],63 ± 3%
same,Endothelial cells co-cultured with tumor cells + SP + Aprepitant,[2]; [7],43 ± 4%
same,Tumor cells co-cultured with endothelial cells + SP + Aprepitant,[2]; [7],65 ± 4%
same,Endothelial cells co-cultured with tumor cells + SP + Aprepitant,[2]; Carcinoma of ovarian,49 ± 5%
same,Tumor cells co-cultured with endothelial cells + SP + Aprepitant,[2]; Carcinoma of ovarian,54 ± 4%
same,Endothelial cells co-cultured with tumor cells + SP + Aprepitant,[2]; Carcinoma of prostate,54 ± 4%
same,Tumor cells co-cultured with endothelial cells + SP + Aprepitant,[2]; Carcinoma of prostate,47 ± 5%
same,Endothelial cells co-cultured with tumor cells + SP + Aprepitant,[2]; Carcinoma of stomach,65 ± 2%
same,Tumor cells co-cultured with endothelial cells + SP + Aprepitant,[2]; Carcinoma of stomach,54 ± 5%
same,Endothelial cells co-cultured with tumor cells + SP + Aprepitant,[2]; [8],45 ± 3%
same,Tumor cells co-cultured with endothelial cells + SP + Aprepitant,[2]; [8],46 ± 6%
same,Endothelial cells co-cultured with tumor cells + SP + Aprepitant,[2]; [9],56 ± 6%
same,Tumor cells co-cultured with endothelial cells + SP + Aprepitant,[2]; [9],56 ± 4%
same,Endothelial cells co-cultured with tumor cells + SP + Aprepitant,[2]; Fibrosarcoma,45 ± 6%
same,Tumor cells co-cultured with endothelial cells + SP + Aprepitant,[2]; Fibrosarcoma,55 ± 6%
same,Endothelial cells co-cultured with tumor cells + SP + Aprepitant,[2]; Glioma,56 ± 5%
same,Tumor cells co-cultured with endothelial cells + SP + Aprepitant,[2]; Glioma,49 ± 4%
same,Endothelial cells co-cultured with tumor cells + SP + Aprepitant,[2]; Hodgkin's Lymphoma,48 ± 4%
same,Tumor cells co-cultured with endothelial cells + SP + Aprepitant,[2]; Hodgkin's Lymphoma,74 ± 6%
same,Endothelial cells co-cultured with tumor cells + SP + Aprepitant,[2]; Leukemia B,46 ± 5%
same,Tumor cells co-cultured with endothelial cells + SP + Aprepitant,[2]; Leukemia B,54 ± 6%
same,Endothelial cells co-cultured with tumor cells + SP + Aprepitant,[2]; Leukemia T,56 ± 6%
same,Tumor cells co-cultured with endothelial cells + SP + Aprepitant,[2]; Leukemia T,56 ± 5%
same,Endothelial cells co-cultured with tumor cells + SP + Aprepitant,[2]; Malignant fibrous histiocytoma,56 ± 6%
same,Tumor cells co-cultured with endothelial cells + SP + Aprepitant,[2]; Malignant fibrous histiocytoma,44 ± 5%
same,Endothelial cells co-cultured with tumor cells + SP + Aprepitant,[2]; Melanoma,56 ± 6%
same,Tumor cells co-cultured with endothelial cells + SP + Aprepitant,[2]; Melanoma,46 ± 5%
same,Endothelial cells co-cultured with tumor cells + SP + Aprepitant,[2]; Myeloma,54 ± 8%
same,Tumor cells co-cultured with endothelial cells + SP + Aprepitant,[2]; Myeloma,64 ± 3%
same,Endothelial cells co-cultured with tumor cells + SP + Aprepitant,[2]; Neuroblastoma,49 ± 4%
same,Tumor cells co-cultured with endothelial cells + SP + Aprepitant,[2]; Neuroblastoma,55 ± 6%
same,Endothelial cells co-cultured with tumor cells + SP + Aprepitant,[2]; Non-Hodgkin's Lymphoma B,67 ± 5%
same,Tumor cells co-cultured with endothelial cells + SP + Aprepitant,[2]; Non-Hodgkin's Lymphoma B,49 ± 6%
same,Endothelial cells co-cultured with tumor cells + SP + Aprepitant,[2]; Non-Hodgkin's Lymphoma T,49 ± 4%
same,Tumor cells co-cultured with endothelial cells + SP + Aprepitant,[2]; Non-Hodgkin's Lymphoma T,83 ± 8%
same,Endothelial cells co-cultured with tumor cells + SP + Aprepitant,[2]; Renal carcinoma,56 ± 2%
same,Tumor cells co-cultured with endothelial cells + SP + Aprepitant,[2]; Renal carcinoma,53 ± 3%
same,Endothelial cells co-cultured with tumor cells + SP + Aprepitant,[2]; Sarcoma of Ewing,45 ± 5%
same,Tumor cells co-cultured with endothelial cells + SP + Aprepitant,[2]; Sarcoma of Ewing,45 ± 7%
same,PHF cells expressing MMP-3,[3],0%
same,PHF cells expressing MMP-7,[3],0%
same,PHF cells expressing MMP-9,[3],0%
same,PHF cells expressing MMP-11,[3],0%
same,PHF cells expressing MMP-13,[3],0%
same,PHF cells expressing MMP-14,[3],0%
same,PHF cells expressing SPARC,[3],0%
same,PHF cells expressing TGF-α,[3],0%
same,PHF cells expressing TGF-β1,[3],0%
same,PHF cells expressing TGF-β2,[3],0%
same,PHF cells expressing TGF-β3,[3],0%
same,fibroblasts expressing MMP-7,[4],0%
same,fibroblasts expressing MMP-11,[4],0%
same,fibroblasts expressing MMP-14,[4],0%
same,fibroblasts expressing TGF-α,[4],0%
same,fibroblasts expressing TGF-β 1,[4],0%
same,fibroblasts expressing TGF-β 2,[4],0%
same,fibroblasts expressing TGF-β 3,[4],0%
same,PHF cells expressing MMP-3,[5],0%
same,PHF cells expressing MMP-7,[5],0%
same,PHF cells expressing MMP-9,[5],0%
same,PHF cells expressing MMP-11,[5],0%
same,PHF cells expressing MMP-13,[5],0%
same,PHF cells expressing MMP-14,[5],0%
same,PHF cells expressing SPARC,[5],0%
same,PHF cells expressing TGF-α,[5],0%
same,PHF cells expressing TGF-β1,[5],0%
same,PHF cells expressing TGF-β2,[5],0%
same,PHF cells expressing TGF-β3,[5],0%
